Data on 54 molecules can be found in US10919885B2, “Compounds and uses thereof” (Yumanity Therapeutics, Inc., priority 2018, dated 2021).

In one test the target is human SCD5 (Homo sapiens (Human), UniProt Q86SK9). Kind of test: Yeast growth assay, strain expressing human SCD5 as the sole desaturase (reduced growth as surrogate for SCD inhibition). The class given is cell-based. The conditions noted are these: yeast with OLE1 deleted expressing human SCD5 from a plasmid; growth read as OD600 after 40 h at 30° C.; top drug concentration 33.3 μM. Summed up: (§1)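 Human SCD1 or SCD5 expressed from a plasmid in OLE1-deleted yeast as the sole desaturase. Cells washed free of Tween and fatty acids, grown with compound in SD-Ura glucose medium 40 h at 30 °C; growth measured as OD600, reduced growth taken as SCD inhibition.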
human SCD5, sequence (Q86SK9 whole entry): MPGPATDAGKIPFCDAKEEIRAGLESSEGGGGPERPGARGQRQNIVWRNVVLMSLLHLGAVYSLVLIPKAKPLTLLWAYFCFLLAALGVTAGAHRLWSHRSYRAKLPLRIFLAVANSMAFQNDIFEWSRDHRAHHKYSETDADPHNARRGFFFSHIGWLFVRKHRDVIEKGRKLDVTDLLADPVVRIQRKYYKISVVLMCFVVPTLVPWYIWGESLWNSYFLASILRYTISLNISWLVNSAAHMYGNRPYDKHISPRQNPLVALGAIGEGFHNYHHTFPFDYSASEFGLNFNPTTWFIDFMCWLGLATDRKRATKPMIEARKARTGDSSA

A further test deals with human SCD1 (Homo sapiens (Human), UniProt O00767). Put plainly: Yeast growth assay, strain expressing human SCD1 as the sole desaturase (reduced growth as surrogate for SCD inhibition). The class given is cell-based. The conditions noted are these: yeast with OLE1 deleted expressing human SCD1 from a plasmid; growth read as OD600 after 40 h at 30° C.; top drug concentration 33.3 μM. Summed up:
as §1

human SCD1, sequence (O00767 whole entry): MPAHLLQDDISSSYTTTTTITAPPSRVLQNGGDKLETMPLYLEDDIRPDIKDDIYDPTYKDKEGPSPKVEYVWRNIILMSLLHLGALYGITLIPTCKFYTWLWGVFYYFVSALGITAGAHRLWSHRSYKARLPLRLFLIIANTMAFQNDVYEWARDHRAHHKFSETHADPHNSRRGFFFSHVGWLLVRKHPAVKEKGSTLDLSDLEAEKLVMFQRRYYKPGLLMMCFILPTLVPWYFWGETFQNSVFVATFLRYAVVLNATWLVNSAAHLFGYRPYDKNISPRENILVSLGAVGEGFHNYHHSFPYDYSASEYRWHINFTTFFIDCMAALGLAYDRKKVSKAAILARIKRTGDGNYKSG

By IC50 is commonly meant the midpoint of a concentration-inhibition curve. Read a high IC50 as weaker potency. Take `O=C(c1cc(-c2ccccc2)on1)N1CCC(c2ccccc2F)C1` (stereo not drawn) [Compound 335]: the IC50 at human SCD5 and against human SCD1 was > 45 µM throughout.

Regarding `COc1ccc(C2CCCN2C(=O)c2cc(-c3ccc(C(F)(F)F)cc3)on2)cc1` (stereo not drawn) [Compound 381], the IC50 against human SCD5 and against human SCD1 was > 45 µM each time.

For `Cn1cc(NC(=O)c2cc(-c3ccco3)on2)cn1` [Compound 10], the IC50 against human SCD5 and at human SCD1 was > 45 µM each time.

Take `CC(c1ccccc1)n1cc(NC(=O)c2cc(-c3ccccc3)on2)cn1` (stereo not drawn) [Compound 51]: the IC50 against human SCD5 and against human SCD1 was > 45 µM each time.

As for `CNC(=O)c1cccc(-c2cc(C(=O)N3CCC(c4ccccc4)CC3)no2)c1` [Compound 303], the IC50 on human SCD5 and against human SCD1 was > 45 µM in each case.

In the case of `O=C(c1cc(-c2ccco2)on1)N1CC2(COC2)C1` [Compound 247], the IC50 on human SCD5 and against human SCD1 was > 45 µM each time.

As for `O=C(Nc1ccccc1)C1CCCN1C(=O)c1cc(-c2ccc3c(c2)OCO3)on1` (stereo not drawn) [Compound 455], the IC50 against human SCD5 and against human SCD1 was > 45 µM throughout.

`COc1ccc(-c2cc(C(=O)N3CCCC3c3ccc(OC)cc3)no2)cc1` (stereo not drawn) [Compound 376]: the IC50 at human SCD5 and against human SCD1 was > 45 µM throughout.

In the case of `CC1(c2cc(C(=O)Nc3cnn(Cc4cccc(F)c4)c3)no2)COC1` [Compound 116], the IC50 against human SCD5 and against human SCD1 was > 45 µM each time.

For `O=C(c1cc(-c2ccc3c(c2)OCO3)on1)N1CCC(c2ccncc2)CC1` [Compound 293], the IC50 at human SCD5 and at human SCD1 was > 45 µM throughout.

As to `N#Cc1ccc(-c2cc(C(=O)N3CCC[C@H]3c3ccccc3)no2)cc1` [Compound 404], the IC50 on human SCD5 and at human SCD1 was > 45 µM throughout.

As for `O=C(c1cc(-c2ccccc2)on1)N1CCC(c2ccc(F)cc2)C1` (stereo not drawn) [Compound 334], the IC50 against human SCD5 and at human SCD1 was > 45 µM in each case.

With `O=C(Nc1cnn(Cc2ccc(F)c(F)c2)c1)c1cc(-c2ccccn2)on1` [Compound 61], the IC50 at human SCD5 is > 45 µM; on human SCD1, 25.5 µM.

`O=C(Nc1noc(Cc2ccccc2)n1)c1cc(-c2ccccc2)on1` [Compound 79]: the IC50 against human SCD5 and against human SCD1 was > 45 µM each time.

For `O=C(Nc1ccnc(Oc2ccccc2)c1)c1cc(-c2ccccc2)on1` [Compound 312], the 50% inhibitory concentration (IC50) against human SCD5 and on human SCD1 was > 45 µM throughout.

For the molecule `O=C(Nc1cnn(Cc2ccc(Cl)cc2)c1)c1cc(-c2ccco2)on1` [Compound 15], the IC50 on human SCD5 and on human SCD1 was > 45 µM each time.

As to `Cc1ncc(-c2cc(C(=O)Nc3cnn(Cc4ccccc4)c3)no2)s1` [Compound 133], the IC50 at human SCD5 and against human SCD1 was > 45 µM throughout.

As for `O=C(c1cc(-c2ccccc2)on1)N1CC2(C=C(c3ccccc3)C2)C1` [Compound 225, (6-phenyl-2-azaspiro[3.3]hept-6-en-2-yl)-(5-phenylisoxazol-3-yl)methanone], the results for the IC50 at human SCD5 and against human SCD1 were 6.41 µM and > 45 µM, respectively.

On to `O=C(c1cc(-c2cnccn2)on1)N1CC(c2ccccc2)C1` [Compound 259, (3-phenylazetidin-1-yl)(5-(pyrazin-2-yl)isoxazol-3-yl)methanone], for which the results for the IC50 on human SCD5 and on human SCD1 were 5 µM and > 45 µM, respectively.

As to `CN(Cc1cccc(F)c1)C(=O)c1cc(-c2ccccc2)on1` [Compound 9], the IC50 against human SCD5 is 15.7 µM; against human SCD1, > 45 µM.

Turning to `O=C(Nc1cnn(Cc2cccc(F)c2)c1)c1cc(CO)on1` [Compound 191], the IC50 at human SCD5 and on human SCD1 was > 45 µM throughout.

In the case of `O=C(Nc1cnn(Cc2ccccc2)c1)c1cc(-c2ccccc2F)no1` [Compound 130], the IC50 against human SCD5 and on human SCD1 was > 45 µM in each case.

In the case of `O=C(c1cc(-c2ccc3c(c2)OCO3)on1)N1CCc2ccccc2C1` [Compound 260], the IC50 at human SCD5 and at human SCD1 was > 45 µM in each case.

Take `CC(C)(C)c1cc(C(=O)Nc2cnn(Cc3ccccc3)c2)no1` [Compound 118, N-(1-benzyl-1H-pyrazol-4-yl)-5-(tert-butyl)isoxazole-3-carboxamide]: the IC50 at human SCD5 came to 2.7 µM; against human SCD1 it was 0.15 µM.

`O=C(NC1CCN(Cc2ccccc2)C1)c1cc(-c2ccco2)on1` (stereo not drawn) [Compound 337]: the IC50 against human SCD5 and against human SCD1 was > 45 µM throughout.

Turning to `Cc1nn(C)c2cc(-c3cc(C(=O)N4CCCC4c4cccnn4)no3)ccc12` (stereo not drawn) [Compound 462], the IC50 against human SCD5 and on human SCD1 was > 45 µM each time.

With `O=C(c1noc2c1CCCC2)N1CC(c2ccccc2)C1` [Compound 252, 3-(3-phenylazetidine-1-carbonyl)-4,5,6,7-tetrahydro-1,2-benzoxazole], the IC50 against human SCD5 is 7.5 µM; against human SCD1, > 45 µM.

With `N#Cc1ccccc1-c1cc(C(=O)Nc2cnn(Cc3ccccc3)c2)no1` [Compound 135], the IC50 against human SCD5 and against human SCD1 was > 45 µM in each case.

Regarding `CC(C)(C)OC(=O)n1cc(NC(=O)c2cc(-c3ccccc3)on2)cn1` [Compound 35], the IC50 at human SCD5 was > 45 µM; against human SCD1, 3.24 µM.

Consider `O=C(c1cc(-c2ccc(F)cn2)on1)N1CC(c2ccccc2)C1` [Compound 243, (5-(5-fluoropyridin-2-yl)isoxazol-3-yl)(3-phenylazetidin-1-yl)methanone], for which the results for the IC50 on human SCD5 and at human SCD1 were 1.5 µM and 1.6 µM, respectively.

`O=C(c1cc(-c2ccccc2)on1)N1CC(c2ccccc2)C1` [Compound 212, (3-phenylazetidin-1-yl)-(5-phenylisoxazol-3-yl)methanone]: the IC50 was found to be 1.62 µM at human SCD5 and 4.52 µM on human SCD1.

In the case of `Cc1nn(C)c(C)c1NC(=O)c1cc(-c2ccco2)on1` [Compound 1], the half-maximal inhibitory concentration (IC50) on human SCD5 and against human SCD1 was > 45 µM in each case.

Consider `NC(=O)c1cc(C(=O)N2CCC(c3ccccc3)C2)no1` (stereo not drawn) [Compound 348], for which the IC50 was > 45 µM against human SCD5 and 7.61 µM against human SCD1.

For the molecule `O=C(c1cc(-c2ccccc2)on1)N1CC(Nc2ccccc2)C1` [Compound 214], the IC50 against human SCD5 and against human SCD1 was > 45 µM throughout.

For `O=C(Nc1cnn(Cc2cccc(F)c2)c1)c1cc(-c2ccno2)on1` [Compound 168], the IC50 against human SCD5 and at human SCD1 was > 45 µM each time.

On to `CCOC(=O)c1cc(C(=O)Nc2cnn(Cc3ccccc3)c2)on1` [Compound 151], for which the IC50 against human SCD5 and against human SCD1 was > 45 µM in each case.

Turning to `Cn1ccc(-c2cc(C(=O)N3CCC[C@H]3c3ccccc3)no2)cc1=O` [Compound 428], the IC50 at human SCD5 was > 45 µM; against human SCD1 it was 29.4 µM.

Take `CC(C)(C)OC(=O)n1cc(NC(=O)c2cc(-c3ccco3)on2)cn1` [Compound 12]: the IC50 at human SCD5 and against human SCD1 was > 45 µM each time.

Consider `O=C(Nc1cnn(CC2CC2)c1)c1cc(-c2ccccc2)on1` [Compound 41], for which the IC50 against human SCD5 and on human SCD1 was > 45 µM each time.

As for `CSCCC(c1ccccc1)n1cc(NC(=O)c2cc(-c3ccccc3)on2)cn1` (stereo not drawn) [Compound 70], the IC50 at human SCD5 and against human SCD1 was > 45 µM throughout.

For the molecule `O=C(c1cc(-c2ccc3c(c2)OCO3)on1)N1CCC1c1ccccc1Cl` (stereo not drawn) [Compound 219], the IC50 on human SCD5 and at human SCD1 was > 45 µM in each case.

In the case of `O=C(Nc1cnn(CC2CCOC2)c1)c1cc(-c2ccccc2)on1` (stereo not drawn) [Compound 50], the IC50 is > 45 µM on human SCD5 and 25.5 µM against human SCD1.

With `O=C(c1cc(-c2ccc3c(c2)OCO3)on1)N1CCCC1c1ncccc1Br` (stereo not drawn) [Compound 447], the IC50 against human SCD5 and against human SCD1 was > 45 µM in each case.

On to `O=C(Nc1cnn(Cc2ccccc2)c1)c1cc(-c2c(F)cccc2F)on1` [Compound 195], for which the IC50 at human SCD5 and against human SCD1 was > 45 µM each time.

For the molecule `Cc1ncc(-c2cc(C(=O)Nc3cnn(Cc4cccc(F)c4)c3)no2)o1` [Compound 67, N-(1-(3-fluorobenzyl)-1H-pyrazol-4-yl)-5-(2-methyloxazol-5-yl)isoxazole-3-carboxamide], the IC50 was 7.89 µM on human SCD5 and 0.99 µM on human SCD1.

In the case of `Cc1cc(C2CCCN2C(=O)c2cc(-c3ccc4c(c3)OCO4)on2)no1` (stereo not drawn) [Compound 442], the IC50 against human SCD5 and on human SCD1 was > 45 µM throughout.

Take `O=C(Nc1cnn(Cc2cccc(F)c2)c1)c1cc(-c2ccncc2)on1` [Compound 56, N-(1-(3-fluorobenzyl)-1H-pyrazol-4-yl)-5-(pyridin-4-yl)isoxazole-3-carboxamide]: the IC50 is 2.69 µM against human SCD5 and 2.41 µM against human SCD1.

As to `COc1ccc(C2CCCN2C(=O)c2cc(-c3ccc4nc(N(C)C)oc4c3)on2)cc1` (stereo not drawn) [Compound 399], the IC50 against human SCD5 came to 2.89 µM; against human SCD1, 15 µM.

Consider `O=C(c1cc(-c2ccc3c(c2)OCO3)on1)N1CCCC1c1ncccc1F` (stereo not drawn) [Compound 457], for which the IC50 at human SCD5 and at human SCD1 was > 45 µM throughout.

On to `O=C(Nc1cnn(Cc2ccccc2)n1)c1cc(-c2ccccc2)on1` [Compound 52], for which the IC50 on human SCD5 and on human SCD1 was > 45 µM throughout.

Regarding `CN1CCN(c2cc(C(=O)Nc3cnn(Cc4ccccc4)c3)no2)CC1` [Compound 183], the IC50 at human SCD5 and at human SCD1 was > 45 µM each time.

Take `O=C(Nc1cnn(Cc2ccc(C(F)(F)F)cc2)c1)c1cc(-c2ccco2)on1` [Compound 16]: the IC50 on human SCD5 and against human SCD1 was > 45 µM in each case.

Take `NC(=O)c1cc(C(=O)Nc2cnn(Cc3ccccc3)c2)no1` [Compound 48]: the IC50 on human SCD5 and at human SCD1 was > 45 µM throughout.

As to `C=C(C)c1cc(C(=O)Nc2cnn(Cc3ccccc3)c2)on1` [Compound 153], the IC50 against human SCD5 came to 7 µM; against human SCD1, 9 µM.
